Patent publication US20190152967A1, “PEROXISOME PROLIFERATOR-ACTIVATED RECEPTOR GAMMA SELECTIVE AGONISTS FOR INHIBITION OF RETINAL PIGMENT EPITHELIUM DEGENERATION OR GEOGRAPHIC ATROPHY” (The Schepens Eye Research Institute, Inc., priority 2016, published 2019)

Columns and labels:
primary human RPE cells = test: chloroquine-induced death of primary human RPE cells
[1] = system: caspase-1 activation in ARPE-19 cells; test: ox-LDL-induced caspase-1 activation (FLICA probe) in ARPE-19 cells; format: cell-based; details: ARPE-19 serum-starved 24 hr, ox-LDL 100 μg/ml, troglitazone 1.3 μM, 48 hr
Description: Cells were imaged by fluorescent microscope and the numbers of capase-1 positive cells for each treatment group were quantified by a masked investigator.

human primary RPE cells = test: ox-LDL-induced cell death of human primary RPE
Description: For both, RPE cells were treated with 500 μg/mL of ox-LDL for 48 hr. Data=mean±SEM, **P<0.01 and ***P<0.001 compared to ox-LDL group (2-tailed unpaired t-test).
Data=mean±SEM, ***P<0.001 compared to ox-LDL group (2-tailed unpaired t-test).

[2] = system: PPARγ target genes (ANGPT, ACOX3) in ARPE19 cells; test: PPARγ target genes expression in ARPE19 cells; details: 48-hour treatment, troglitazone vs. rosiglitazone
ARPE-19 cells = test: ox-LDL-induced RPE (ARPE-19) cell death; format: cell-based; details: for protection of RPE from ox-LDL-induced cell death (FIG. 7): UVI3003 20 μM, troglitazone 1.3 μM alone or in combination with T0070907 and GW9662; for effect on the protection by PPARγ agonist troglitazone on RPE (FIG. 7): ARPE-19, ox-LDL, combined with troglitazone (1.3 μM)
Description: In FIG. 1B, ARPE-19 cells were treated for 48 hr with LDL or ox-LDL at 25, 50, or 100 μg/ml. Conditioned media were harvested, and LDH levels were quantified to evaluate cell death.
FIG. 5 is a bar graph showing testing different PPARγ agonists for RPE (ARPE-19) protection.
FIG. 7 is a bar graph showing testing the effect of different PPAR(α, γ) and RXR antagonists in ox-LDL-induced RPE (ARPE-19) cell death.

RXR = RXR antagonist; cited from earlier work
PPARγ [3] = biological target: T1, PPARγ (Homo sapiens, UniProt P37231); details: PPARγ antagonist; cited from earlier work
T1 sequence (P37231 1-505): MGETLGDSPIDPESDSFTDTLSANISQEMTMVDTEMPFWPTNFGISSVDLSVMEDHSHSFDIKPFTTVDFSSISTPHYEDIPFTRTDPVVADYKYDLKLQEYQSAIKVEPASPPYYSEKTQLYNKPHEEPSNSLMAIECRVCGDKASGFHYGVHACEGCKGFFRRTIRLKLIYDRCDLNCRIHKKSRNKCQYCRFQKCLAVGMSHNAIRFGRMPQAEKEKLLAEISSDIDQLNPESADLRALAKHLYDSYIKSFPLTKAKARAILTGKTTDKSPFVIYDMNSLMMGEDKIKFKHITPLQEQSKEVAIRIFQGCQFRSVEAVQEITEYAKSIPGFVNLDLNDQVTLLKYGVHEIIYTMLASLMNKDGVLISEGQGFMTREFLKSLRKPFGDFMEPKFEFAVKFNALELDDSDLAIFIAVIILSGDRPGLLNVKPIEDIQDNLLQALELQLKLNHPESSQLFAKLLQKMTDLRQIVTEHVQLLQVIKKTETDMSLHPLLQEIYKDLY

PPARγ [4] = biological target: T1, PPARγ; details: PPARγ agonist; cited from earlier work

## Cc1c(C)c2c(c(C)c1O)CCC(C)(COc1ccc(CC3SC(=O)NC3=O)cc1)O2 (racemic) [troglitazone, (RS)-5-(4-[(6-hydroxy-2,5,7,8-tetramethylchroman-2-yl)methoxy]benzyl)thiazolidine-2,4-dione]
Primary human RPE cells
  suppression of RPE death induced by chloroquine (FIG. 4): ineffective
[1]
  suppression of ox-LDL-induced caspase-1 activation (FIG. 3): significantly suppressed ox-LDL-induced caspase-1 activation
Human primary RPE cells; human primary RPE, 500 μg/mL ox-LDL for 48 hr, doses of 0.65 μM and 0.98 μM
  decrease of ox-LDL-induced cell death (FIG. 2B): significantly decreased cell death in a dose-dependent manner
Human primary RPE cells; primary human RPE cells
  suppression of ox-LDL-induced death of primary human RPE cells (FIG. 4): significantly suppressed ox-LDL-induced death
[2]
  expression levels of PPARγ target genes ANGPT (angiopoietin-like-4) and ACOX3 (FIGS. 6A-B): differentially affected
ARPE-19 cells; ARPE-19
  protection of RPE from ox-LDL-induced cell death (FIG. 7): significantly protected the RPE against ox-LDL-induced cell death
ARPE-19 cells; ARPE-19, troglitazone at 0.65 and 3.25 μM
  protection of RPE from ox-LDL-induced cell death (FIG. 5): significantly protected RPE cell from ox-LDL-induced cell death

## O=C(Nc1ccncc1)c1cc([N+](=O)[O-])ccc1Cl [T0070907]
ARPE-19 cells
  effect on the protection by PPARγ agonist troglitazone on RPE (FIG. 7): did not affect the protection effect
ARPE-19 cells; ARPE-19
  protection of RPE from ox-LDL-induced cell death (FIG. 7): did not have any detectable protection effect

## CCCCCOc1cc2c(cc1-c1cc(/C=C/C(=O)O)ccc1O)C(C)(C)CCC2(C)C [UVI3003]
RXR
  IC50: < 1000 nM
ARPE-19 cells; ARPE-19
  protection of RPE from ox-LDL-induced cell death (FIG. 7): significantly protected RPE from ox-LDL-induced death
ARPE-19 cells; ARPE-19, UVI3003 at high dose (20 μM)
  protection of RPE from ox-LDL-induced death: about 100%

## O=C(Nc1ccccc1)c1cc([N+](=O)[O-])ccc1Cl [GW9662]
PPARγ [3]
  IC50: < 100 nM
ARPE-19 cells
  effect on the protection by PPARγ agonist troglitazone on RPE (FIG. 7): did not affect the protection effect
ARPE-19 cells; ARPE-19
  protection of RPE from ox-LDL-induced cell death (FIG. 7): did not have any detectable protection effect

## O=C1NC(=O)C(Cc2ccc3cc(OCc4ccccc4F)ccc3c2)S1 (stereo not drawn) [MCC-555]
PPARγ [4]
  EC50 relative to rosiglitazone: lower than that of rosiglitazone

## CCC(=O)NC[C@H](Cc1ccc(OCCc2nc(-c3ccccc3)oc2C)cc1)N/C(C)=C\C(=O)c1ccc(C(F)(F)F)cc1 [GW6471]
ARPE-19 cells; ARPE-19
  protection of RPE from ox-LDL-induced cell death (FIG. 7): no detectable effect in RPE protection

## CCCCC/C=C/C=C1/C(=O)C=C[C@@H]1C/C=C\CCCC(=O)O [PGJ2, 15-deoxy-Δ^12,14-Prostaglandin J2]
PPARγ [4]
  EC50: 2000 to 7000 nM
